Values after ≈ are worked out from the molar mass of the structure shown. Where two headings read alike, the source gives them in different places.
Key:
[1] = Solubility of MS4078 in buffer and cFaSSIF types (24 h, 37°C); format: physicochemical; conditions: thermodynamic from solid
Method: The solubility of MS4078 was evaluated by weighing an excess amount of the compound into vials and adding a prewarmed buffer or cFaSSIF types (cFaSSIF1x , cFaSSIF5 x , and cFaSSIF10x ). The suspension was stirred at 37°C for 24 h at 300 rpm. Samples were withdrawn from the suspension, and centrifuged at 15000 rpm (Mikro 200 R, Hettich, Tuttlingen, Germany) and the supernatant was diluted 1:1 with ACN. The dissolved concentration was determined by ultraperformance liquid chromatography (UHPLC, see Section ). The experiments were carried out in triplicate.
UHPLC analysis of MS4078 is described in detail in a previous publication of our group. In brief, the samples were analyzed at 271 nm using a Waters Acquity H-Class series UHPLC system (Waters Corporation, Eschborn, Germany). A gradient was applied using ACN and water with 0.1% (V/V) trifluoracetic acid as mobile phases. Separation was realized by a Waters Acquity BEH C8 column (2.1 × 50 mm, 1.7 μm).

[2] = Pharmacokinetic study in mice (K–V i.v./p.o., SDD-V p.o.); format: in vivo, mice (female CD-1); conditions: 0.5 mg/kg in K–V
Method: To evaluate the in vivo performance of the MS4078 SDD formulation, pharmacokinetic studies in mice were conducted and compared to the corresponding Kolliphor solution vehicle. The API in Kolliphor vehicle (see Section ) and the SDD formulation were given in a single-dose study to female CD-1 mice (Charles River Laboratories, Sulzfeld, Germany). The animals were kept in group housing in conventional cages with elevated grids. Food and water were offered ad libitum to the animals.
The study was carried out at EMD Serono (Billerica, MA, USA). A total of 21 mice (female, CD-1) were divided into groups of 12 and 9 animals. The solution vehicle was prepared according to Section . Doses of 0.5 mg/kg of MS4078 were administered intravenously (dose volume: 5 mL/kg) to 12 animals and blood samples (retro-orbital) were sequentially drawn from 3 animals per sampling point at 0.1, 0.25, 0.5, 1, 2, 6, and 24 h after dosing. 10 mg/kg were administered orally (dose volume: 10 mL/kg) to the second group of 9 animals. After dosing, blood samples from 3 animals per sampling point were sequentially drawn at the time points described above, except for the 0.1 h sampling point. The blood cells were dissevered by centrifugation (2000 g, 5 min). Plasma samples were extracted using a protein precipitation reagent (ACN, 4:1 (V/V)). After the addition of 50 μL methanol, the concentration was determined by LC-MS/MS (generic method, based on tuning data).
Mouse PK studies of the enabling formulation were conducted at Nuvisan GmbH (Grafing, Germany). To determine oral bioavailability of MS4078/SDD, the SDD formulation (dose: 10 mg/kg MS4078) was weighed in, dispersed in a citrate vehicle (see Section ), and administered orally (gavage, dose volume: 10 mL/kg) to three female mice (Crl:CD1(ICR)). […] 50 μL of supernatant were diluted 1:1 with a solution of 0.1% formic acid in water and the concentration of MS4078 was determined by UHPLC-MS/MS (generic method, based on tuning data).
Plasma concentrations were determined for each time point sampled. […]

[3] = Two-stage precipitation assay simulating the conditions in mice; format: physicochemical
Method: To determine the dissolution and precipitation of both the Kolliphor solution vehicle and the SDD dispersion in citrate vehicle upon the GI passage in vitro, a two-stage precipitation assay was conducted which had been developed internally. Therefore, the Kolliphor vehicle containing MS4078 and the dispersion of the SDD in citrate vehicle were prepared according to the descriptions in Sections and , respectively.
According to McConnell et al., the volume of gastric fluid in mice is about 175 μL. […]
The setup of the two-stage precipitation experiments and an overview of the samples are depicted in Figure and Table . […] The concentration of MS4078 was determined by sampling and UHPLC analysis or the turbidity of the samples was analyzed in-line using the Cary3500 (Agilent, Santa Clara, CA, USA) (Figure D). […] As a first step, the optical density (OD) of the cFaSSIF types, Blank-DM (citrate vehicle/SGF pH 4 mixture without polymer or API) and P-DM (a solution of E PO in citrate vehicle/SGF pH 4 mixture) were measured in a range of 200–800 nm (Figure S2). […]
1 Schematic setup of the two-stage precipitation experiments. […] All samples were centrifuged (15,000 rpm (Mikro 200 R)) for 60 s, and the supernatant was diluted with ACN and analyzed via UHPLC (see Section ). […]

Compound: Cc1cc(Nc2ncc(Cl)c(Nc3ccccc3S(=O)(=O)C(C)C)n2)c(OC(C)C)cc1C1CCN(CC(=O)NCCNc2cccc3c2C(=O)N(C2CCC(=O)NC2=O)C3=O)CC1 (centres unmarked) [MS4078]
- solubility at 24 h ([1]; aqueous buffer, citrate-phosphate buffer pH 5, 37°C, read-out: Solubility): ~2 µg/mL (≈ 2.19 µM)
- solubility at 24 h ([1]; fassgf or other biorelevant, cFaSSIF5x pH 5, 37°C, read-out: Solubility in 5x concentrated cFaSSIF): ~220 µg/mL (≈ 241 µM)
- solubility at 24 h ([1]; fassif, cFaSSIF1x pH 5, 37°C, read-out: Solubility S(cFaSSIF1x)): 78 µg/mL (≈ 85.3 µM)
- in vivo total clearance as % mouse liver blood flow [2]: 20 % mouse liver blood flow
- clearance ([2]; female, CD-1, mouse, plasma, iv, read-out: in vivo total clearance (converted)): 20.3 mL/min/kg
- Vd ([2]; female, CD-1, mouse, plasma, iv, read-out: volume of distribution (Vss)): 1.05 L/kg
- Dissolved MS4078 concentration in acceptor compartment maintained until end of experiment ([3]; SDD-DM transferred to cFaSSIF10x, from the 20 min sampling point): 30 µg/mL
- Dissolved MS4078 concentration in acceptor compartment after phase separation (plateau) ([3]; SDD-DM transferred to cFaSSIF20x): ~220 µg/mL

From PMC12505254, “PROTAC Enabling Formulation In Vivo: Implications of the Polymeric Carrier Eudragit E PO” (Molecular Pharmaceutics, 2025)
